In patent US9511016B2, “Topical composition for treating pain” (EpicentRx, Inc., priority 2007, dated 2016):
Where “and” joins values, the source holds several entries; their conditions need not be identical. Equal entries are not always repeated.

How the values were obtained:
Human Patient = assay: Systemic effects in human patients after application: breathing, peak expiratory flow, appetite, alertness; type: in vivo; conditions: patient of the example or table row cited
From the text: Pluronic gel 20% with lecithin soya/isopropyl myristate was applied to stomach and abdominal wall.

Human Patient with Pain = assay: Topical treatment of human patients with pain: pain level (x/10), mobility, duration; type: in vivo; conditions: for Observation: mobility: Table 5 patient 10, neck pain 5/10; for Mobility / stiffness after application: patient and treated site of the example or table row cited
[1] = Table 7: neck pain and stiffness
[2] = Table 7: sacroiliac strain, bilateral sacroilitis
[3] = Table 7: sacroiliac strain, bilateral sacroilitis, listed as Albuterol inhaler
[4] = Ex.27, clonidine then nitropaste
[5] = Table 7: compression fracture of vertebra
[6] = Table 7: patellofemoral syndrome
[7] = Table 7: back, leg, joint, hip, toe, knee pain

## CCCCCCCCCCCCOS(=O)(=O)[O-].[Na+] [SDS 20%, Sodium dodecyl sulfate]
Human Patient; listed as SDS, sulfate
  Systemic effects noted (alertness, appetite, breathing, congestion, sweating, secretions): improvement in breathing

## CC(C)(C)NCC(O)c1ccc(O)c(CO)c1 (centres unmarked) [albuterol inhaler, albuterol]
Human Patient with Pain; Ex.34 V(a) left heel (no gel), initial 8/10, inhalers in series
  Pain level: 6/10
Human Patient with Pain; Ex.34 V(a) left heel, albuterol inhaler given again (from 5/10)
  Pain level: 3/10
Human Patient with Pain; Ex.34 V(a) right heel (PLO gel applied here), initial 8/10, then inhalers in series
  Pain level: 4/10
Human Patient with Pain; Ex.34 V(a) right heel, albuterol inhaler given again (from 3/10)
  Pain level: 2/10
Human Patient with Pain; Ex.34 V(c) lower back pain over coccyx, initial 8/10, in series
  Pain level: no change in their back pain
Human Patient with Pain; Ex.34 V(c) neck pain and stiffness, initial 5/10, in series
  Pain level: 2/10
Human Patient with Pain; Ex.34 V(e) sacroiliac strain, initial 8.5/10, in series
  Pain level: 4/10
Human Patient with Pain; Ex.34 V(f) midback pain, initial 7/10
  Pain level: without any change
Human Patient with Pain; Ex.34 V(h) possible lower lumbar compression fracture, initial 5/10, in series
  Pain level: 6/10
Human Patient with Pain; [1]
  EFFECT ON PAIN LEVEL/% change: 2/10
Human Patient with Pain; [2]
  % Change in Pain level, total over successive treatments (marked *): 53% to
Human Patient with Pain; [3]
  % Change in Pain level: 20%
  EFFECT ON PAIN LEVEL/% change: From 5/10 to 4/10
Human Patient with Pain; Table 7: sacroiliac strain, bilateral sacroilitis, listed as albuterol
  % Change in Pain level: 0%

## Triton x100
Human Patient with Pain
  Observation: mobility: Slight increase in mobility

## CC(C)NCC(O)COc1ccc(CC(N)=O)cc1 (centres unmarked) [Atenolol]
Human Patient with Pain; Ex.10 thoracalgia, left side, initial 5/10, in series
  Pain level: pain completely disappeared
Human Patient with Pain; Ex.10 thoracalgia, right side, initial 5/10, in series
  Pain level: 2/10
Human Patient with Pain; Ex.4 hammer toes, halux valgus and rigiditus, initial 7/10, in series
  Pain level: no effect
Human Patient with Pain; Ex.5 hip, trochanteric bursitis, initial 8/10, in series
  Pain level: 6/10
Human Patient with Pain; Ex.5 knee osteoarthritis, initial 8/10
  Pain level: 5/10
Human Patient with Pain; Ex.8 hip, trochanteric bursitis, initial 8/10, in series
  Pain level: no change
Human Patient with Pain; Table 7: osteoarthritis
  % Change in Pain level: 37.5%
  EFFECT ON PAIN LEVEL/% change: From 8/10 to 5/10
Human Patient with Pain; [2]
  % Change in Pain level: 0%
  EFFECT ON PAIN LEVEL/% change: No change
Human Patient with Pain; Table 7: trochanteric bursitis
  % Change in Pain level: 25%
  EFFECT ON PAIN LEVEL/% change: From 8/10 to 6/10

## Clc1cccc(Cl)c1N=C1NCCN1 [Clonidine]
Human Patient with Pain; Ex.11 right arm neuroma with phantom limb, initial 4/10, in series
  Pain level: pain completely disappeared
Human Patient with Pain; Ex.17 left rotator cuff impingement and bursitis, initial printed 5110
  Pain level: Pain disappeared
Human Patient with Pain; Ex.20 ischial gluteal bursitis, initial 9/10, clonidine then nitropaste
  Pain level: 5/10
Human Patient with Pain; Ex.20 right knee osteoarthritis, from 9/10, clonidine then nitropaste
  Pain level: 8/10
Human Patient with Pain; Ex.20 right wrist carpal tunnel, initial 9/10, nitropaste then clonidine paste
  Pain level: 3/10
Human Patient with Pain; Ex.20 trochanteric bursitis, initial 9/10, clonidine then nitropaste
  Pain level: 5/10
Human Patient with Pain; Ex.21 bilateral sacroiliac strain, initial 9/10, in series
  Pain level: 5/10
Human Patient with Pain; Ex.22 bilateral rotator cuff tear, initial printed 8.5410
  Pain level: no effect
Human Patient with Pain; Ex.23 thoracalgia, initial 8/10
  Pain level: no effect
Human Patient with Pain; Ex.24 left patellofemoral syndrome, initial 7/10, in series
  Pain level: 3/10
Human Patient with Pain; Ex.25 left trochanteric bursitis, initial 7/10
  Pain level: disappeared
Human Patient with Pain; Ex.25 right thumb osteoarthritis, initial 2/10, in series
  Pain level: stayed the same
Human Patient with Pain; Ex.26 L3 vertebral compression fracture, initial 6/10, in series
  Pain level: 4/10
Human Patient with Pain; Ex.27 neck stiffness and pain, radiculopathy, initial about 6/10
  Pain level: pain disappeared
Human Patient with Pain; [4]
  Head rotation to left: 70 degrees
  Head rotation to right: 75 degrees
Human Patient with Pain; Ex.28 left knee, initial 6/10, nitrobid then clonidine
  Pain level: pain also disappeared
Human Patient with Pain; Ex.28 right knee osteoarthritis/patellofemoral syndrome, initial 6/10, clonidine then nitrobid
  Pain level: 3/10
Human Patient with Pain; Ex.30 diabetic lower extremity neuropathy, initial 7/10, in series
  Pain level: 5/10
Human Patient with Pain; Table 1 part II: after clonidine paste (first step), listed as CD
  Pain Level, CD: 3/10 and 7/10 and 6/10
Human Patient with Pain; [5]
  % Change in Pain level: 33%
  EFFECT ON PAIN LEVEL/% change: From 6/10 to 4/10, No
Human Patient with Pain; Table 7: migraine and tension headache
  % Change in Pain level, total over successive treatments (marked *): *100%
Human Patient with Pain; Table 7: migraine, tension headache, cluster headache, headache
  EFFECT ON PAIN LEVEL/% change: 0/10
Human Patient with Pain; [1]
  % Change in Pain level: 100%
  EFFECT ON PAIN LEVEL/% change: From 6/10 to 0/10
Human Patient with Pain; Table 7: osteoarthritis
  % Change in Pain level, total over successive treatments (marked *): *100%;
  EFFECT ON PAIN LEVEL/% change: No change and From 6/10 to 3/10 and 6/10 to 0/10
Human Patient with Pain; [6]
  % Change in Pain level: 40%
  % Change in Pain level, total over successive treatments (marked *): 57%
  EFFECT ON PAIN LEVEL/% change: From 5/10 to 3/10
Human Patient with Pain; Table 7: rotator cuff tendinopathy, rotator cuff tear, shoulder pain, listed as Clonidine paste
  EFFECT ON PAIN LEVEL/% change: From 3/10 to 0/10
Human Patient with Pain; Table 7: rotator cuff tendinopathy, tear, shoulder pain, listed as Clonidine paste
  % Change in Pain level: 100%
Human Patient with Pain; Table 7: trochanteric bursitis
  EFFECT ON PAIN LEVEL/% change: From 7/10 to 0/10
Human Patient with Pain
  Mobility / stiffness after application: improved flexibility
Human Patient with Pain; listed as Clonidine paste
  Mobility / stiffness after application: improved mobility and range of motion
Human Patient with Pain; patient of the example cited
  Duration of pain relief: 6 h
  Persistence of pain relief at follow-up: A day later patient reported that their knee pain was still reduced
  Time to decrease of pain: 5 min
Human Patient with Pain; patient of the example cited, listed as clonidine
  Time to decrease of pain: ≤ 10 min

## CC(O)CO (centres unmarked) [Propylene glycol]
Human Patient with Pain; Table 5
  Observation (pain): No effect

## COc1cc(CNC(=O)CCCC/C=C/C(C)C)ccc1O [capsaicin]
Human Patient with Pain; across patients
  Overall analgesic effect (general statement): did not have much of an effect except in a few patients

## Tween 20
Human Patient with Pain
  Observation: mobility: Increased mobility

## OCC(O)CO [GP, Glycerin]
Human Patient with Pain; Table 4, components marked +, complaint and initial level in the same row, plus anhydrous lanolin
  Observation (pain): Pain disappeared
Human Patient with Pain; Table 5
  Observation (pain): 10 No effect on knee
Human Patient with Pain; Table 5, listed as Glycerin pure
  Observation (pain): 1/10
Human Patient with Pain; [7]
  % Change in Pain level: 0%
  EFFECT ON PAIN LEVEL/% change: No Change, then from 8/10
Human Patient with Pain; Table 7: osteoarthritis
  % Change in Pain level: 16.7%
Human Patient with Pain; Table 7: tarsal tunnel, carpal tunnel syndrome, wrist pain
  % Change in Pain level: 0%

## Tween 80
Human Patient with Pain
  Observation: mobility: More mobility
Human Patient
  Systemic effects noted (alertness, appetite, breathing, congestion, sweating, secretions): improvement in breathing
